Like-named read-outs stand apart in the source and are kept apart here.
Assays:
Pyricularia oryzae = assay type: cell-based; conditions: PO, 48 hours
Uromyces phaseoli = assay: Spore germination test; assay type: cell-based; conditions: UP, 48 hours
In short: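 Compound was delivered in acetone into water agar at final 40, 10, 2.5 and 1 ppm. Alternaria solani and Botrytis cinerea spores were applied as sterile-water suspensions, while Erysiphe polygoni and Uromyces phaseoli spores were brushed on from infected leaves. After 48 h at 24° C., percentage germination was converted to a rating.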

CC(=O)Nc1ccc(Oc2nsnc(Cl)c2=O)cc1 [Compound 8, 5-(4-acetylaminophenoxy)-3-chloro-4H--1,2,6-thiadiazin-4-one]
Spore Germination Rating (Pyricularia oryzae; 1.0 ppm): 4 (80-100) | Spore Germination Rating (Pyricularia oryzae; 2.5 ppm): 3 (60-80) | Spore Germination Rating (Pyricularia oryzae; 10 ppm): 0 (0-10) | Spore Germination Rating (Pyricularia oryzae; 40 ppm): 0 (0-10) | Spore Germination Rating (Uromyces phaseoli; 1.0 ppm): 4 (80-100) | Spore Germination Rating (Uromyces phaseoli; 2.5 ppm): 4 (80-100) | Spore Germination Rating (Uromyces phaseoli; 10 ppm): 0 (0-10) | Spore Germination Rating (Uromyces phaseoli; 40 ppm): 0 (0-10)

O=c1c(Cl)nsnc1Oc1ccc([N+](=O)[O-])cc1 [Compound 9, 3-chloro-5-(4-nitrophenoxy)-4H--1,2,6-thiadiazin-4-one]
Spore Germination Rating (Pyricularia oryzae; 1.0 ppm): 0 (0-10) | Spore Germination Rating (Pyricularia oryzae; 2.5 ppm): 0 (0-10) | Spore Germination Rating (Pyricularia oryzae; 10 ppm): 0 (0-10) | Spore Germination Rating (Pyricularia oryzae; 40 ppm): 0 (0-10) | Spore Germination Rating (Uromyces phaseoli; 1.0 ppm): 0 (0-10) | Spore Germination Rating (Uromyces phaseoli; 2.5 ppm): 0 (0-10) | Spore Germination Rating (Uromyces phaseoli; 10 ppm): 0 (0-10) | Spore Germination Rating (Uromyces phaseoli; 40 ppm): 0 (0-10)

N#Cc1ccc(Oc2nsnc(Cl)c2=O)cc1 [Compound 10, 3-chloro-5-(4-cyanophenoxy)-4H--1,2,6-thiadiazin-4-one]
Spore Germination Rating (Pyricularia oryzae; 1.0 ppm): 0 (0-10) | Spore Germination Rating (Pyricularia oryzae; 2.5 ppm): 0 (0-10) | Spore Germination Rating (Pyricularia oryzae; 10 ppm): 0 (0-10) | Spore Germination Rating (Pyricularia oryzae; 40 ppm): 0 (0-10) | Spore Germination Rating (Uromyces phaseoli; 1.0 ppm): 0 (0-10) | Spore Germination Rating (Uromyces phaseoli; 2.5 ppm): 0 (0-10) | Spore Germination Rating (Uromyces phaseoli; 10 ppm): 0 (0-10) | Spore Germination Rating (Uromyces phaseoli; 40 ppm): 0 (0-10)

O=c1c(Cl)nsnc1Oc1ccc(F)cc1 [Compound 11, 3-chloro-5-(4-fluorophenoxy)-4H--1,2,6-thiadiazin-4-one]
Spore Germination Rating (Pyricularia oryzae; 1.0 ppm): 3 (60-80) | Spore Germination Rating (Pyricularia oryzae; 2.5 ppm): 0 (0-10) | Spore Germination Rating (Pyricularia oryzae; 10 ppm): 0 (0-10) | Spore Germination Rating (Pyricularia oryzae; 40 ppm): 0 (0-10) | Spore Germination Rating (Uromyces phaseoli; 1.0 ppm): 4 (80-100) | Spore Germination Rating (Uromyces phaseoli; 2.5 ppm): 0 (0-10) | Spore Germination Rating (Uromyces phaseoli; 10 ppm): 0 (0-10) | Spore Germination Rating (Uromyces phaseoli; 40 ppm): 0 (0-10)

O=c1c(Cl)nsnc1Oc1ccc(Cl)cc1 [Compound 12, 3-chloro-5-(4-chlorophenoxy)-4H--1,2,6-thiadiazin-4-one]
Spore Germination Rating (Pyricularia oryzae; 1.0 ppm): 0 (0-10) | Spore Germination Rating (Pyricularia oryzae; 2.5 ppm): 0 (0-10) | Spore Germination Rating (Pyricularia oryzae; 10 ppm): 0 (0-10) | Spore Germination Rating (Pyricularia oryzae; 40 ppm): 0 (0-10) | Spore Germination Rating (Uromyces phaseoli; 1.0 ppm): 1 (10-40) | Spore Germination Rating (Uromyces phaseoli; 2.5 ppm): 1 (10-40) | Spore Germination Rating (Uromyces phaseoli; 10 ppm): 0 (0-10) | Spore Germination Rating (Uromyces phaseoli; 40 ppm): 0 (0-10)

O=c1c(Cl)nsnc1Oc1cccc(Cl)c1 [Compound 13, 3-chloro-5-(3-chlorophenoxy)-4H--1,2,6-thiadiazin-4-one]
Spore Germination Rating (Pyricularia oryzae; 1.0 ppm): 3 (60-80) | Spore Germination Rating (Pyricularia oryzae; 2.5 ppm): 0 (0-10) | Spore Germination Rating (Pyricularia oryzae; 10 ppm): 0 (0-10) | Spore Germination Rating (Pyricularia oryzae; 40 ppm): 0 (0-10) | Spore Germination Rating (Uromyces phaseoli; 1.0 ppm): 0 (0-10) | Spore Germination Rating (Uromyces phaseoli; 2.5 ppm): 0 (0-10) | Spore Germination Rating (Uromyces phaseoli; 10 ppm): 0 (0-10) | Spore Germination Rating (Uromyces phaseoli; 40 ppm): 0 (0-10)

O=c1c(Cl)nsnc1Oc1ccccc1Cl [Compound 14, 3-chloro-5-(2-chlorophenoxy)-4H--1,2,6-thiadiazin-4-one]
Spore Germination Rating (Pyricularia oryzae; 1.0 ppm): 3 (60-80) | Spore Germination Rating (Pyricularia oryzae; 2.5 ppm): 0 (0-10) | Spore Germination Rating (Pyricularia oryzae; 10 ppm): 0 (0-10) | Spore Germination Rating (Pyricularia oryzae; 40 ppm): 0 (0-10) | Spore Germination Rating (Uromyces phaseoli; 1.0 ppm): 0 (0-10) | Spore Germination Rating (Uromyces phaseoli; 2.5 ppm): 0 (0-10) | Spore Germination Rating (Uromyces phaseoli; 10 ppm): 0 (0-10) | Spore Germination Rating (Uromyces phaseoli; 40 ppm): 0 (0-10)

O=c1c(Cl)nsnc1Oc1ccc(Br)cc1 [Compound 15, 3-chloro-5-(4-bromophenoxy)-4H--1,2,6-thiadiazin-4-one]
Spore Germination Rating (Pyricularia oryzae; 1.0 ppm): 0 (0-10) | Spore Germination Rating (Pyricularia oryzae; 2.5 ppm): 1 (10-40) | Spore Germination Rating (Pyricularia oryzae; 10 ppm): 0 (0-10) | Spore Germination Rating (Pyricularia oryzae; 40 ppm): 0 (0-10) | Spore Germination Rating (Uromyces phaseoli; 1.0 ppm): 1 (10-40) | Spore Germination Rating (Uromyces phaseoli; 2.5 ppm): 0 (0-10) | Spore Germination Rating (Uromyces phaseoli; 10 ppm): 0 (0-10) | Spore Germination Rating (Uromyces phaseoli; 40 ppm): 0 (0-10)

O=c1c(Cl)nsnc1Oc1ccc(Cl)c(Cl)c1 [Compound 16, 3-chloro-5-(3,4-dichlorophenoxy)-4H--1,2,6-thiadiazin-4-one]
Spore Germination Rating (Pyricularia oryzae; 1.0 ppm): 0 (0-10) | Spore Germination Rating (Pyricularia oryzae; 2.5 ppm): 0 (0-10) | Spore Germination Rating (Pyricularia oryzae; 10 ppm): 0 (0-10) | Spore Germination Rating (Pyricularia oryzae; 40 ppm): 0 (0-10) | Spore Germination Rating (Uromyces phaseoli; 1.0 ppm): 1 (10-40) | Spore Germination Rating (Uromyces phaseoli; 2.5 ppm): 0 (0-10) | Spore Germination Rating (Uromyces phaseoli; 10 ppm): 0 (0-10) | Spore Germination Rating (Uromyces phaseoli; 40 ppm): 0 (0-10)

O=c1c(Cl)nsnc1Oc1ccc(Cl)cc1Cl [Compound 17, 3-chloro-5-(2,4-dichlorophenoxy)-4H--1,2,6-thiadiazin-4-one]
Spore Germination Rating (Pyricularia oryzae; 1.0 ppm): 0 (0-10) | Spore Germination Rating (Pyricularia oryzae; 2.5 ppm): 0 (0-10) | Spore Germination Rating (Pyricularia oryzae; 10 ppm): 0 (0-10) | Spore Germination Rating (Pyricularia oryzae; 40 ppm): 0 (0-10) | Spore Germination Rating (Uromyces phaseoli; 1.0 ppm): 0 (0-10) | Spore Germination Rating (Uromyces phaseoli; 2.5 ppm): 0 (0-10) | Spore Germination Rating (Uromyces phaseoli; 10 ppm): 0 (0-10) | Spore Germination Rating (Uromyces phaseoli; 40 ppm): 0 (0-10)

O=c1c(Cl)nsnc1Oc1c(Cl)cccc1Cl [Compound 18, 3-chloro-5-(2,6-dichlorophenoxy)-4H--1,2,6-thiadiazin-4-one]
Spore Germination Rating (Pyricularia oryzae; 1.0 ppm): 4 (80-100) | Spore Germination Rating (Pyricularia oryzae; 2.5 ppm): 2 (40-60) | Spore Germination Rating (Pyricularia oryzae; 10 ppm): 0 (0-10) | Spore Germination Rating (Pyricularia oryzae; 40 ppm): 0 (0-10) | Spore Germination Rating (Uromyces phaseoli; 1.0 ppm): 0 (0-10) | Spore Germination Rating (Uromyces phaseoli; 2.5 ppm): 0 (0-10) | Spore Germination Rating (Uromyces phaseoli; 10 ppm): 0 (0-10) | Spore Germination Rating (Uromyces phaseoli; 40 ppm): 0 (0-10)

O=c1c(Cl)nsnc1Oc1cccc(Cl)c1Cl [Compound 19, 3-chloro-5-(2,3-dichlorophenoxy)-4H--1,2,6-thiadiazin-4-one]
Spore Germination Rating (Pyricularia oryzae; 1.0 ppm): 3 (60-80) | Spore Germination Rating (Pyricularia oryzae; 2.5 ppm): 0 (0-10) | Spore Germination Rating (Pyricularia oryzae; 10 ppm): 0 (0-10) | Spore Germination Rating (Pyricularia oryzae; 40 ppm): 0 (0-10) | Spore Germination Rating (Uromyces phaseoli; 1.0 ppm): 0 (0-10) | Spore Germination Rating (Uromyces phaseoli; 2.5 ppm): 0 (0-10) | Spore Germination Rating (Uromyces phaseoli; 10 ppm): 0 (0-10) | Spore Germination Rating (Uromyces phaseoli; 40 ppm): 0 (0-10)

O=c1c(Cl)nsnc1Oc1cc(Cl)cc(Cl)c1 [Compound 20, 3-chloro-5-(3,5-dichlorophenoxy)-4H--1,2,6-thiadiazin-4-one]
Spore Germination Rating (Pyricularia oryzae; 1.0 ppm): 1 (10-40) | Spore Germination Rating (Pyricularia oryzae; 2.5 ppm): 0 (0-10) | Spore Germination Rating (Pyricularia oryzae; 10 ppm): 0 (0-10) | Spore Germination Rating (Pyricularia oryzae; 40 ppm): 0 (0-10) | Spore Germination Rating (Uromyces phaseoli; 1.0 ppm): 0 (0-10) | Spore Germination Rating (Uromyces phaseoli; 2.5 ppm): 0 (0-10) | Spore Germination Rating (Uromyces phaseoli; 10 ppm): 0 (0-10) | Spore Germination Rating (Uromyces phaseoli; 40 ppm): 0 (0-10)

Cc1cccc(Oc2nsnc(Cl)c2=O)c1 [Compound 21, 3-chloro-5-(3-methylphenoxy)-4H--1,2,6-thiadiazin-4-one]
Spore Germination Rating (Pyricularia oryzae; 1.0 ppm): 4 (80-100) | Spore Germination Rating (Pyricularia oryzae; 2.5 ppm): 0 (0-10) | Spore Germination Rating (Pyricularia oryzae; 10 ppm): 0 (0-10) | Spore Germination Rating (Pyricularia oryzae; 40 ppm): 0 (0-10) | Spore Germination Rating (Uromyces phaseoli; 1.0 ppm): 4 (80-100) | Spore Germination Rating (Uromyces phaseoli; 2.5 ppm): 2 (40-60) | Spore Germination Rating (Uromyces phaseoli; 10 ppm): 0 (0-10) | Spore Germination Rating (Uromyces phaseoli; 40 ppm): 0 (0-10)

Cc1ccccc1Oc1nsnc(Cl)c1=O [Compound 22, 3-chloro-5-(2-methylphenoxy)-4H--1,2,6-thiadiazin-4-one]
Spore Germination Rating (Pyricularia oryzae; 1.0 ppm): 2 (40-60) | Spore Germination Rating (Pyricularia oryzae; 2.5 ppm): 0 (0-10) | Spore Germination Rating (Pyricularia oryzae; 10 ppm): 0 (0-10) | Spore Germination Rating (Pyricularia oryzae; 40 ppm): 0 (0-10) | Spore Germination Rating (Uromyces phaseoli; 1.0 ppm): 4 (80-100) | Spore Germination Rating (Uromyces phaseoli; 2.5 ppm): 2 (40-60) | Spore Germination Rating (Uromyces phaseoli; 10 ppm): 1 (10-40) | Spore Germination Rating (Uromyces phaseoli; 40 ppm): 0 (0-10)

Cc1ccc(Oc2nsnc(Cl)c2=O)c(C)c1 [Compound 23, 3-chloro-5-(2,4-dimethylphenoxy)-4H--1,2,6-thiadiazin-4-one]
Spore Germination Rating (Pyricularia oryzae; 1.0 ppm): 4 (80-100) | Spore Germination Rating (Pyricularia oryzae; 2.5 ppm): 0 (0-10) | Spore Germination Rating (Pyricularia oryzae; 10 ppm): 0 (0-10) | Spore Germination Rating (Pyricularia oryzae; 40 ppm): 0 (0-10) | Spore Germination Rating (Uromyces phaseoli; 1.0 ppm): 4 (80-100) | Spore Germination Rating (Uromyces phaseoli; 2.5 ppm): 4 (80-100) | Spore Germination Rating (Uromyces phaseoli; 10 ppm): 1 (10-40) | Spore Germination Rating (Uromyces phaseoli; 40 ppm): 0 (0-10)

Cc1cccc(C)c1Oc1nsnc(Cl)c1=O [Compound 24, 3-chloro-5-(2,6-dimethylphenoxy)-4H--1,2,6-thiadiazin-4-one]
Spore Germination Rating (Pyricularia oryzae; 1.0 ppm): 3 (60-80) | Spore Germination Rating (Pyricularia oryzae; 2.5 ppm): 0 (0-10) | Spore Germination Rating (Pyricularia oryzae; 10 ppm): 0 (0-10) | Spore Germination Rating (Pyricularia oryzae; 40 ppm): 0 (0-10) | Spore Germination Rating (Uromyces phaseoli; 1.0 ppm): 1 (10-40) | Spore Germination Rating (Uromyces phaseoli; 2.5 ppm): 0 (0-10) | Spore Germination Rating (Uromyces phaseoli; 10 ppm): 0 (0-10) | Spore Germination Rating (Uromyces phaseoli; 40 ppm): 0 (0-10)

Cc1cc(C)cc(Oc2nsnc(Cl)c2=O)c1 [Compound 25, 3-chloro-5-(3,5-dimethylphenoxy)-4H--1,2,6-thiadiazin-4-one]
Spore Germination Rating (Pyricularia oryzae; 1.0 ppm): 3 (60-80) | Spore Germination Rating (Pyricularia oryzae; 2.5 ppm): 0 (0-10) | Spore Germination Rating (Pyricularia oryzae; 10 ppm): 0 (0-10) | Spore Germination Rating (Pyricularia oryzae; 40 ppm): 0 (0-10) | Spore Germination Rating (Uromyces phaseoli; 1.0 ppm): 4 (80-100) | Spore Germination Rating (Uromyces phaseoli; 2.5 ppm): 2 (40-60) | Spore Germination Rating (Uromyces phaseoli; 10 ppm): 1 (10-40) | Spore Germination Rating (Uromyces phaseoli; 40 ppm): 0 (0-10)

Nc1ccc(Oc2nsnc(Cl)c2=O)cc1 [Compound 26, 5-(4-aminophenoxy)-3-chloro-4H--1,2,6-thiadiazin-4-one]
Spore Germination Rating (Pyricularia oryzae; 1.0 ppm): 4 (80-100) | Spore Germination Rating (Pyricularia oryzae; 2.5 ppm): 2 (40-60) | Spore Germination Rating (Pyricularia oryzae; 10 ppm): 0 (0-10) | Spore Germination Rating (Pyricularia oryzae; 40 ppm): 0 (0-10) | Spore Germination Rating (Uromyces phaseoli; 1.0 ppm): 2 (40-60) | Spore Germination Rating (Uromyces phaseoli; 2.5 ppm): 3 (60-80) | Spore Germination Rating (Uromyces phaseoli; 10 ppm): 4 (80-100) | Spore Germination Rating (Uromyces phaseoli; 40 ppm): 2 (40-60)
